The results in this text go back to article PMC8770261, “Automatic Production and Preliminary PET Imaging of a New Imaging Agent [^18F]AlF-FAPT” (Frontiers in Oncology, 2022).

This data set can be described thus: Biological distribution in normal Kunming mice (γ counter, %ID/g). In kind it is in vivo. The note with it: tail vein injection, 60 min. The method, then:
The biological distribution experiment of [^18F]AlF-FAPT was carried out in normal Kunming mice. Twenty Kunming mice were randomly and equally divided into four groups and each injected with 0.1 ml of [^18F]AlF-FAPT (1.48~2.22 MBq) through their tail vein. The mice were then sacrificed after 5, 30, 60, and 90 minutes, followed by weighing their organs and determining the radioactivity using a γ counter. The radioactivity of each organ was normalized using the percentage of injected dose per gram of tissue (% ID/g). [^18F]FAPI-42 also used the same method mentioned above to carry out the biological distribution at the time point of 60 minutes.

As for `N#C[C@@H]1CC(F)(F)CN1C(=O)CNC(=O)c1ccnc2ccc(OCCCN3CCN(C(=O)CN4CCN5CCN(CC4)CC(=O)[O][Al]([F])[O]C(=O)C5)CC3)cc12` [[^18F]FAPI-42], the “radioactivity uptake value in the gallbladder” value is 7.30 ± 1.43 %ID/g.
